Changes are numbered by the printed parent chain. pKd: −log10 of the molar value. “Also recorded” adds a separate entry of the source.
Columns and labels:
AT1AR R126H [1] = biological target: T1, AT1AR R126H (Rattus norvegicus, UniProt P25095, L81C/R126H/S109T); assay: [3H]inositol phosphate accumulation in HEK-293 cells; assay type: cell-based; conditions: stimulated with AngII (1 μM, 1 μg elsewhere in the source)
T1 construct: expressed in transfected cells; host or cells: HEK-293
T1 sequence (P25095 1-359 L81C/S109T/R126H): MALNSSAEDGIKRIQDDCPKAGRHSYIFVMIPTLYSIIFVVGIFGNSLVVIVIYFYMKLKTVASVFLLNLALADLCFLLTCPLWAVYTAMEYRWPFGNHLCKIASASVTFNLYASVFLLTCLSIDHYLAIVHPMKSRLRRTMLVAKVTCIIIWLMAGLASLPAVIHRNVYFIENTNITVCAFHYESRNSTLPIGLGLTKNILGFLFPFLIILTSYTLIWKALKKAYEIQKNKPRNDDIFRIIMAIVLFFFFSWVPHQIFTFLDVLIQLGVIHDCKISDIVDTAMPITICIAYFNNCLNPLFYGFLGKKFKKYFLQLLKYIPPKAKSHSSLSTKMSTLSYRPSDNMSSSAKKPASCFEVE
Experimental: Inositol Phosphate Determination—Transiently transfected HEK-293 cells in 10 cm^2 dishes were plated onto 12-well plates (Falcon) coated with […] poly-D-lysine (Sigma) and incubated overnight in MEM+10% FBS (fetal bovine serum) at 37° C. To assay for inositol phosphate production, cells were incubated overnight at 37° C. in labeling media (1 μCi/0.5 ml/well of [^3H]inositol in MEM+5% fetal bovine serum). Cells were washed with MEM, 20 mM HEPES, pH 7.4, 20 mM LiCl for 5 minutes at 37° C. and then treated with agonist. Total inositol phosphate was extracted and separated as previously described in Cotecchia, S., et al., 1992, J. Biol. Chem. 267: 1633–1639.

AT1AR R126H [2] = biological target: T1, AT1AR R126H; assay: βarrestin-GFP translocation in HEK-293 cells; assay type: cell-based; conditions: 1 μM AngII
Experimental: (§1) Cell Culture and Transfection—For V2R experiments: HEK-293 cells were grown in Eagle's minimal essential medium with Earle's salt (MEM) supplemented with 10% fetal bovine serum and a 1:100 dilution of penicillin/streptomycin (Sigma Chemicals, St. Louis, Mo.). Cells were transiently transfected with plasmid cDNA using a modified calcium phosphate co-precipitation method as described in Barak et al., 1997, Mol. Pharmacol., 51:177–84. For α1B-AR and AT1AR experiments: Cells were transiently transfected in 10 cm^2 dishes (Falcon) with 1 μg receptor or GRK plasmid cDNA in pCDNA3.1(−) using above modified calcium phosphate transfection coprecipitation method for inositol phosphate and binding assays. For confocal microscopy, cells were transiently transfected in collagen (Sigma) coated 35 mm^2 glass bottom confocal dishes (MatTek, Ashland, Mass.) with Lipofectamine®2000 and Opti-MEM media (Life Technologies) using a standard method (Ciccarone, V., et al., 1999, Focus 21.2, 54–55). Cells for confocal microscopy were transfected with 30 ng of βarrestin or receptor plasmid cDNA in pEGFP and 250 ng of dynamin(K44A), GRK, or receptor in pcDNA3.1/zeo.
(§2) Confocal Microscopy—HEK-293 cells were plated on the day following transfection onto collagen (Sigma Chemical, St. Louis, Mo.) treated 35 mm^2 glass-bottomed culture dishes. […]

wild type AT1AR = biological target: T2, wild type AT1AR (Rattus norvegicus, UniProt P25095); assay: βarrestin-GFP translocation in HEK-293 cells; assay type: cell-based; conditions: 1 μM AngII
T2 construct: expressed in transfected cells; host or cells: HEK-293
T2 sequence (P25095 1-359): T1 sequence (P25095 1-359 L81C/S109T/R126H) with C81L, T109S, H126R
Experimental: as §1, §2

wild type AT1AR-GFP = biological target: T3, wild type AT1AR-GFP (Rattus norvegicus, UniProt P25095); assay: Receptor-GFP localization by confocal microscopy in HEK-293 cells; assay type: cell-based; conditions: 1 μM AngII
T3 construct: expressed in transfected cells; host or cells: HEK-293
T3 sequence (P25095 1-359): T1 sequence (P25095 1-359 L81C/S109T/R126H) with C81L, T109S, H126R
Experimental: as §1, §2

mock = assay: Whole cell cAMP accumulation in HEK-293 cells; assay type: cell-based; conditions: 2.5 μM AVP for 15 min., mean±SD, n=3
AT1AR R126H-GFP = biological target: T4, AT1AR R126H-GFP (Rattus norvegicus, UniProt P25095, L81C/R126H/S109T); assay: Receptor-GFP localization by confocal microscopy in HEK-293 cells; assay type: cell-based; conditions: cultured in 1 μM L158,809, no agonist
T4 construct: expressed in transfected cells; host or cells: HEK-293
T4 sequence (P25095 1-359 L81C/S109T/R126H): T1 sequence (P25095 1-359 L81C/S109T/R126H)
Experimental: as §1, §2

α1B-AR R143 mutants [3] = assay: [3H]inositol phosphate accumulation in HEK-293 cells; assay type: cell-based, golden hamster; conditions: 10 μM NE; R143 substituted with Ala, Glu, His or Asn
Experimental: (§4) Inositol Phosphate Determination—Transiently transfected HEK-293 cells in 10 cm^2 dishes were plated onto 12-well plates (Falcon) coated with 25 mg/ml poly-D-lysine (Sigma) and incubated overnight in MEM+10% FBS (fetal bovine serum) at 37° C. To assay for inositol phosphate production, cells were incubated overnight at 37° C. in labeling media (1 μCi/0.5 ml/well of [^3H]inositol in MEM+5% fetal bovine serum). Cells were washed with MEM, 20 mM HEPES, pH 7.4, 20 mM LiCl for 5 minutes at 37° C. and then treated with agonist.

wild type α1B-AR-GFP = biological target: T5, wild type α1B-AR-GFP (Mesocricetus auratus, UniProt P18841); assay: Receptor-GFP localization by confocal microscopy in HEK-293 cells; assay type: cell-based, golden hamster
T5 construct: expressed in transfected cells; host or cells: HEK-293
T5 sequence (P18841 1-515): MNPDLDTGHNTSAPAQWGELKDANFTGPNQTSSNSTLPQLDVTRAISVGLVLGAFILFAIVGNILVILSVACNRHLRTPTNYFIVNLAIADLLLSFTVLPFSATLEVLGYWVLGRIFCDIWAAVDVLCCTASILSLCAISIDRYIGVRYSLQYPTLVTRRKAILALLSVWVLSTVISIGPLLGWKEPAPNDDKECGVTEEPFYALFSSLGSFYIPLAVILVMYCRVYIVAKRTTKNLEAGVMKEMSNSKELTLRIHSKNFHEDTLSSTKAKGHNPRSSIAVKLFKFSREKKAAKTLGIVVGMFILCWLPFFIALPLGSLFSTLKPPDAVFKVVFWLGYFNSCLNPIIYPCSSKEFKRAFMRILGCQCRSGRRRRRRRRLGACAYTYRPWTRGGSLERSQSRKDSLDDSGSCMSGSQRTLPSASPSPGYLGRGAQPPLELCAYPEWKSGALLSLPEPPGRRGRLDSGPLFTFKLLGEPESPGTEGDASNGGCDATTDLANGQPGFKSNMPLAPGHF
Experimental: as §1
(§3) Confocal Microscopy—HEK-293 cells were plated on the day following transfection onto collagen (Sigma Chemical, St. Louis, Mo.) treated 35 mm^2 glass-bottomed culture dishes. Confocal microscopy was performed with a Zeiss laser-scanning microscope (LSM-510). GFP images were collected using the 488 nm argon excitation and a 505 nm long pass filter. For α1B-AR and AT1AR experiments: HEK-293 cells were transiently transfected in 35 mm^2 confocal dishes. Cells were stimulated with 10 μM NE or 1 μM AngII and incubated at 37° C. for 30 minutes before viewing. Alternatively, cells were cultured overnight at 37° C. in 10 μM phentolamine or 1 μM L158,809. Confocal microscopy was performed at 100× magnification with a Zeiss laser-scanning microscope (LSM-510). GFP and FITC images were collected using 488-nm excitation and a 505-nm long-pass filter.

wild type α1B-AR [4] = biological target: T6, wild type α1B-AR (Mesocricetus auratus, UniProt P18841); assay: [3H]prazosin whole cell binding, Scatchard analysis, HEK-293 cells; design: species or system golden hamster; conditions: [3H]prazosin Scatchard, read-out: KD for NE
T6 construct: expressed in transfected cells; host or cells: HEK-293
T6 sequence (P18841 1-515): T5 sequence (P18841 1-515)
Experimental: (§5) For α1B-AR and AT1AR experiments: Transiently transfected HEK-293 cells in 10 cm^2 dishes were washed twice in cold binding buffer (MEM+2% bovine serum albumin [BSA]), incubated for 1 hour at room temperature in binding buffer with varying concentrations of [^3H]prazosin (0.25 nM–8 nM), and washed three times in cold binding buffer to remove unbound ligand. Cell bound [^3H]prazosin was measured using a scintillation counter. Nonspecific binding was determined in the presence of 1000-fold molar excess of phentolamine (10 μM). For binding assays done to measure the effect of the co-expression of dynamin(K44A) or the addition of phentolamine in FIG. 14, a fixed concentration of 8 nM [^3H]prazosin was used.

α1B-AR R143A = biological target: T7, α1B-AR R143A (Mesocricetus auratus, UniProt P18841, R143A); assay: as above; design: species or system golden hamster; conditions: [3H]prazosin Scatchard, similar to wild type, read-out: KD for NE
T7 construct: expressed in transfected cells; host or cells: HEK-293
T7 sequence (P18841 1-515 R143A): T5 sequence (P18841 1-515) with R143A
Experimental: as §5

α1B-AR R143 mutants [5] = assay: βarrestin-GFP translocation in HEK-293 cells; assay type: cell-based, golden hamster; conditions: 10 μM NE (data not shown)
Experimental: as §1, §2

wild type α1B-AR [6] = biological target: T6, wild type α1B-AR; assay: βarrestin-GFP translocation in HEK-293 cells; assay type: cell-based, golden hamster; conditions: 10 μM NE
Experimental: as §1, §2

wild type α1B-AR [7] = biological target: T6, wild type α1B-AR; assay: [3H]inositol phosphate accumulation in HEK-293 cells; assay type: cell-based, golden hamster; conditions: 10 μM NE, 30 min., vs absence of agonist
Experimental: as §4

α1B-AR R143E-GFP [8] = biological target: T8, α1B-AR R143E-GFP (Mesocricetus auratus, UniProt P18841, R143E); assay: Receptor-GFP localization by confocal microscopy in HEK-293 cells; assay type: cell-based, golden hamster; conditions: cultured in 10 μM phentolamine at 37° C. overnight, no agonist
T8 construct: expressed in transfected cells; host or cells: HEK-293
T8 sequence (P18841 1-515 R143E): T5 sequence (P18841 1-515) with R143E
Experimental: as §1, §3

α1B-AR R143E-GFP [9] = biological target: T8, α1B-AR R143E-GFP; assay: Plasma membrane receptor expression by whole cell [3H]prazosin binding; assay type: cell-based, golden hamster; conditions: cultured in 10 μM phentolamine at 37° C. overnight; 8 nM [3H]prazosin
Experimental: as §5

angiotensin II [AngII]
[3H]-IP accumulation / signaling compared to stimulated wild type AT1AR (AT1AR R126H [1]): slight impairment of signaling; also recorded: levels identical to HEK cells transfected with wild type AT1AR
distribution of βarrestin-GFP (AT1AR R126H [2]): enhanced distribution of βarrestin-GFP into endocytic vesicles
distribution of βarrestin-GFP (wild type AT1AR): redistribution of the βarrestin-GFP into endocytic vesicles
distribution of receptor-GFP (wild type AT1AR-GFP): internalization of the receptor into endocytic vesicles

NC(=O)CC[C@@H]1NC(=O)[C@H](Cc2ccccc2)NC(=O)[C@H](Cc2ccc(O)cc2)NC(=O)[C@@H](N)CSSC[C@@H](C(=O)N2CCC[C@H]2C(=O)N[C@@H](CCCN=C(N)N)C(=O)NCC(N)=O)NC(=O)[C@H](CC(N)=O)NC1=O [AVP, Arginine vasopressin]
stimulated cAMP response (mock): 0.017±0.006 (counts of [^3H]cAMP per min. per well)/(counts of [^3H]adenine uptake per minute per well)

CCc1nc2c(C)cc(C)nc2n1Cc1ccc(-c2ccccc2-c2nnn[nH]2)cc1 [L158,809, 2-ethyl-5,7-dimethyl-3-[[2′-(1H-tetrazol-5-yl)[1,1′-biphenyl]-4-yl]methyl]-3H-Imidazo[4,5-b]pyridine]
distribution of receptor-GFP (AT1AR R126H-GFP): reversal of the receptor localization back to the plasma membrane; also recorded: redistribution of the receptor back to the plasma membrane

NC[C@H](O)c1ccc(O)c(O)c1 [NE, Norepinephrine]
agonist-induced IP response (α1B-AR R143 mutants [3]): significantly impaired ability to mediate an agonist-induced IP response
distribution of receptor-GFP (wild type α1B-AR-GFP; 10 μM NE, 30 minutes at 37° C.): loss of plasma membrane expression and the redistribution of the receptor to endocytic vesicles
pKd (wild type α1B-AR [4]): 8.46 to 8.82
pKd (α1B-AR R143A): 8.46 to 8.82
distribution of βarrestin-GFP (α1B-AR R143 mutants [5]): enhances this translocation
distribution of βarrestin-GFP (wild type α1B-AR [6]): rapid translocation of βarrestin-GFP to the plasma membrane
increase of [3H]-IP accumulation (wild type α1B-AR [7]): 6 fold

Cc1ccc(N(CC2=NCCN2)c2cccc(O)c2)cc1 [phentolamine]
distribution of receptor-GFP (wild type α1B-AR-GFP; cultured in 10 μM phentolamine at 37° C. overnight): no alteration in the expression of the receptor at the plasma membrane; also recorded: no effect on the distribution of the wild type α1B-AR-GFP
distribution of receptor-GFP (α1B-AR R143E-GFP [8]): complete reversal; also recorded: redistribution of the α1B-AR R143E-GFP from endosomes to the plasma membrane
plasma membrane receptor expression (whole cell [3H]prazosin binding) (α1B-AR R143E-GFP [9]): increases to the level of the wild type receptor

Reference: US7279324B2, “Nucleic acid encoding G-protein coupled receptor with modified DRY motif” (Duke University, priority 2001, dated 2007)
